Here are results for 18 molecules from ChEMBL document CHEMBL1128457, “New antihistamines: substituted piperazine and piperidine derivatives as novel H1-antagonists” (J Med Chem, 1995).

The target of data set [1] is Histamine H1 receptor (Cavia porcellus) (UniProt P31389). Description: In vitro antagonism of histamine-induced contraction of guinea pig ileum at 1x10E-7M. Format: functional, tissue-based.
Data set [2] can be described thus: Dissociation constant (KD) of the compound.
Data set [3] has as its target Histamine H1 receptor (Cavia porcellus) (UniProt P31389). Description: Compound is evaluated for the inhibition of H1-receptor antagonists of histamine-induced skin wheal formation in the guinea pig with a pretreatment interval prior to histamine challenge at 1 h. Format: functional.
For data set [4] the target is unchanged. Description: Compound is evaluated for the inhibition of H1-receptor antagonists of histamine-induced skin wheal formation in the guinea pig with a pretreatment interval prior to histamine challenge at 18 h. It counts as functional.
The nature of data set [5]: pA2 value is determined compared to standard H1-antagonists. It counts as ADME.
Data set [6] has as its target Histamine H1 receptor (Cavia porcellus, UniProt P31389). Description: Compound is evaluated for in vitro receptor binding affinity against H1 receptor.
Data set [7] can be described thus: Partition coefficient (logP). Conditions: octanol/water. It counts as physicochemical.
The subject of data set [8] is Cavia porcellus. Description: Compound is tested for protection by antihistamines against histamine-induced lethality in the guinea pig by oral administration with a pretreatment period of 1 h. Format: functional.
Data set [9] deals with T1, Muscarinic acetylcholine receptor M2 (Homo sapiens, UniProt P08172).
T1 sequence (P08172 whole entry): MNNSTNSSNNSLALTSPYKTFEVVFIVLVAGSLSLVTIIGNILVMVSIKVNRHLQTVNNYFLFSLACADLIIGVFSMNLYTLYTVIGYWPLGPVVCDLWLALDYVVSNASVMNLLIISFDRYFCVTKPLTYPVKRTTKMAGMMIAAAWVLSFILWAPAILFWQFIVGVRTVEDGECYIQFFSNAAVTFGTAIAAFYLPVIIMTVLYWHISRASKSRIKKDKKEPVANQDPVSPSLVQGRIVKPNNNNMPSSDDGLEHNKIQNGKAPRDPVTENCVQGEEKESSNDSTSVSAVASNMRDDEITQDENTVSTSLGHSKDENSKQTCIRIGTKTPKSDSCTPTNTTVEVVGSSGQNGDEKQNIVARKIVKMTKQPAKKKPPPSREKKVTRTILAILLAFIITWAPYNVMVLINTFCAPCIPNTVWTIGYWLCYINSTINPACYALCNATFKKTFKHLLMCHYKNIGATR
Nature of the data set: Compound is evaluated for in vitro receptor binding affinity against Muscarinic acetylcholine receptor M2. The arrangement: species or system Cavia porcellus.

Data set [10] is described as follows: Potency relative to 7-[3-(4-Benzhydryloxy-piperidine-1-yl)-propyl]-1,3-dimethyl-3,7-dihydro-purine-2,6-dione; Relative potency = […]/[…].
The target of data set [11] is T2, 5-hydroxytryptamine receptor 1A (Homo sapiens, UniProt P08908).
T2 sequence (P08908 whole entry): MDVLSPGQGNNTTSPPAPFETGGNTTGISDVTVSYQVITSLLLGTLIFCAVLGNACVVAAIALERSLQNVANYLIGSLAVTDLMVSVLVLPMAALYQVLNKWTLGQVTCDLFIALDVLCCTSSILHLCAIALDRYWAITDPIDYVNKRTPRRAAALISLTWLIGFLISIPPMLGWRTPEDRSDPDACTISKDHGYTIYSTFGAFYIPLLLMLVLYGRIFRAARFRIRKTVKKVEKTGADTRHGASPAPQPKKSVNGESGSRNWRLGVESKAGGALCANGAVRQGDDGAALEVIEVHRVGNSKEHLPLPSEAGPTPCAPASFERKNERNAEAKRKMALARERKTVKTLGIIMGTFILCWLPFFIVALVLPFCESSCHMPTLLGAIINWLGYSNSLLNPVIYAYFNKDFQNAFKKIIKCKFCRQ
Description: Compound is evaluated for in vitro receptor binding affinity against 5-hydroxytryptamine 1A receptor. The arrangement: species or system Cavia porcellus.

Data set [12] has as its target T3, Muscarinic acetylcholine receptor M1 (Homo sapiens, UniProt P11229).
T3 sequence (P11229 whole entry): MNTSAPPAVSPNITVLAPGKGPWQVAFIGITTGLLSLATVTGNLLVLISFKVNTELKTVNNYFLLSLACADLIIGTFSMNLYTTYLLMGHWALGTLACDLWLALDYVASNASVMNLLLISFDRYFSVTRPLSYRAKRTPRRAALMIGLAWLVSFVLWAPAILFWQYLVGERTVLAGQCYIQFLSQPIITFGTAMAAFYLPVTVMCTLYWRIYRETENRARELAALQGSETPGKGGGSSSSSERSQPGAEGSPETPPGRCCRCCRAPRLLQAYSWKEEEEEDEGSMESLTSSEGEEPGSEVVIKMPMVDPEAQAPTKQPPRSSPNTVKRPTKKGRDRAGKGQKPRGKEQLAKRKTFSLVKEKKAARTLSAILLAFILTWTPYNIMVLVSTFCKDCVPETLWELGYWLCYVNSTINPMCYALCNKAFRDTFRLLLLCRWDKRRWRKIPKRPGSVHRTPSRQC
Description: Compound is evaluated for in vitro receptor binding affinity against Muscarinic acetylcholine receptor M1. Also on record: species or system Cavia porcellus.

The target in data set [13] is D(2) dopamine receptor (Homo sapiens, UniProt P14416). Description: Compound is evaluated for in vitro receptor binding affinity against Dopamine receptor D2. The arrangement: species or system Cavia porcellus.
D(2) dopamine receptor, sequence (P14416 whole entry): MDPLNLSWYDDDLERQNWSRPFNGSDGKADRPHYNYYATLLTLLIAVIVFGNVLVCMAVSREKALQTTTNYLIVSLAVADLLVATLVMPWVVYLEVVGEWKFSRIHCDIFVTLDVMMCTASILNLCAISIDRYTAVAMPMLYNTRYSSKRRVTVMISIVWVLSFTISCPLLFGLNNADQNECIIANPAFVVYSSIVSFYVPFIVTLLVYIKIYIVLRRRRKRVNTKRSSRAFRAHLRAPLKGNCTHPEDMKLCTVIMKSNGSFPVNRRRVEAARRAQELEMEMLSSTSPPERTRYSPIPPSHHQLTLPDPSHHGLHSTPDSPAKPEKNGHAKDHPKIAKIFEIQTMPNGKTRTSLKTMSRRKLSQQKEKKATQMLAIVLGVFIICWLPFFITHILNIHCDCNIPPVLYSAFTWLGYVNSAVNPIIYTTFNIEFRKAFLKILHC
The target in data set [14] is T4, Adrenergic receptor alpha-1 (Homo sapiens, UniProt P35348+P25100+P35368).
T4 sequence (P35348 whole entry): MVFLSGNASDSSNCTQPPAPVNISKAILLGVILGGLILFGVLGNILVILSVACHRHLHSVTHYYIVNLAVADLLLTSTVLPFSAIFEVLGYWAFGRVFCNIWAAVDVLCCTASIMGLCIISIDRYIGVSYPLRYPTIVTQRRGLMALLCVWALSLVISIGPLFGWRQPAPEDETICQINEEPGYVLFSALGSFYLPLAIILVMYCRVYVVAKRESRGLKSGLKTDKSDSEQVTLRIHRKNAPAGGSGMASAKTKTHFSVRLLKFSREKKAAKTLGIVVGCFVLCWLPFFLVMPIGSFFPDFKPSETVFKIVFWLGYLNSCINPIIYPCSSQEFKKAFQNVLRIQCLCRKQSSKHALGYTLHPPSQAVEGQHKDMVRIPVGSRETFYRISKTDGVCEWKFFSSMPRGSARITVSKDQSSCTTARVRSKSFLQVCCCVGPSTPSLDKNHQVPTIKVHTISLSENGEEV
T4 sequence (P25100 whole entry): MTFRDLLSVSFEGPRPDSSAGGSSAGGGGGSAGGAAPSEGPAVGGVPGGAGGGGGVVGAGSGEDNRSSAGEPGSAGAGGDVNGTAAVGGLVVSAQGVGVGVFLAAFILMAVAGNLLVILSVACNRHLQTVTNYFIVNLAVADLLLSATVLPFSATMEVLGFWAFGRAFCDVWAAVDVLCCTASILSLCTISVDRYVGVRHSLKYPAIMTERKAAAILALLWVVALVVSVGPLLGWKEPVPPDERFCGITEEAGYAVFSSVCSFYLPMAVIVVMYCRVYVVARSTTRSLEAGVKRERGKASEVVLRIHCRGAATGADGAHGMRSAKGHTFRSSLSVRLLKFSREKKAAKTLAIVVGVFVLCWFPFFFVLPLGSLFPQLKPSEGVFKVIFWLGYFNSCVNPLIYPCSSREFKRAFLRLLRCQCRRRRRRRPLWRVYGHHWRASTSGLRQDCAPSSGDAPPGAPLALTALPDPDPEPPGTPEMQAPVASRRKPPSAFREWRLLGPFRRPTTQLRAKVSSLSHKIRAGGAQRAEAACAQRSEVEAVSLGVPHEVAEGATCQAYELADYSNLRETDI
T4 sequence (P35368 whole entry): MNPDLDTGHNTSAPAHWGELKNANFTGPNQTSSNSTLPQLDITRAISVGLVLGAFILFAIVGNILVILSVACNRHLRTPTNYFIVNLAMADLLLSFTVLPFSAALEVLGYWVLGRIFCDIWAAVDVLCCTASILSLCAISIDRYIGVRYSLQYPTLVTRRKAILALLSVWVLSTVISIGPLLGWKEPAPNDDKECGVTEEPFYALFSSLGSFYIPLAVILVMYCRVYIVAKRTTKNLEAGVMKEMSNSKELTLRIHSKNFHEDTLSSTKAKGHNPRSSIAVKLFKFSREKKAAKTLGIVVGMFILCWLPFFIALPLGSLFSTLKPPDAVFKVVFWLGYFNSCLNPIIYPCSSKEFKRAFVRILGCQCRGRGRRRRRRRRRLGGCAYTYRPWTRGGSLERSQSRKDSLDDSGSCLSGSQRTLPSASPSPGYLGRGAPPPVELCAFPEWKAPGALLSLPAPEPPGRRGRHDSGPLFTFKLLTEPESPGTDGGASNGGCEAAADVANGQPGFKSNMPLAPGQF
Description: Compound is evaluated for in vitro receptor binding affinity against Alpha-1 adrenergic receptor. It counts as protein assay, Cavia porcellus.

Data set [15] relates to Cavia porcellus. Description: Compound is tested for protection by antihistamines against histamine-induced lethality in the guinea pig by oral administration with pretreatment period of 18 h. It counts as functional.

Histamine H1 receptor (Cavia porcellus), sequence (P31389 whole entry): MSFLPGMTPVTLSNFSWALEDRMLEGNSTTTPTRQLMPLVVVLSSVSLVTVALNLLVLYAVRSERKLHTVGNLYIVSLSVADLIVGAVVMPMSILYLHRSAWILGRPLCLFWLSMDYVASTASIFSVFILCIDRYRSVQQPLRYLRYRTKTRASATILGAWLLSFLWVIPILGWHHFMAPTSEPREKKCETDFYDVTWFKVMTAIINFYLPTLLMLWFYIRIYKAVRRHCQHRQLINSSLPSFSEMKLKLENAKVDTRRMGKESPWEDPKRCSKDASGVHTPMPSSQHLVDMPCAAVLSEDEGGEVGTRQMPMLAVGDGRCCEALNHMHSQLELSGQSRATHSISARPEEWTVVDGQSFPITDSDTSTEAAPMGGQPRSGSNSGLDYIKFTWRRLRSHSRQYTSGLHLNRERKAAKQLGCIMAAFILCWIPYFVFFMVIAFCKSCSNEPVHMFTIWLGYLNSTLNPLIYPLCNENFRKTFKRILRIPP
Histamine H1 receptor, sequence (P31389 whole entry): as above

As usually defined, the inhibition is the relative decrease from the control value, in per cent. Low values mean little suppression, high ones strong suppression. As for `O=C1C2C3C=CC(C4CC34)C2C(=O)N1CCCCN1CCN(c2ccc(Cl)nn2)CC1` (centres undefined), the inhibition in [1] is 76%.
In data set [1], `O=C1C2C3C=CC(C4CC34)C2C(=O)N1CCCCN1CCN(C(c2ccc(F)cc2)c2ccc(F)cc2)CC1` (centres undefined) gave an inhibition of 98%.
For `O=C1C2C3C=CC(C4CC34)C2C(=O)N1CCCN1CCN(C(c2ccc(F)cc2)c2ccc(F)cc2)CC1` (centres undefined), the inhibition in data set [1] is 29%.
In turn, `Cn1c(=O)c2c(ncn2CCCCN2CCN(C(c3ccc(Cl)cc3)c3ccc(Cl)cc3)CC2)n(C)c1=O` registered an inhibition in [1] of 14%.
In turn, `O=C1C2C3C=CC(C4CC34)C2C(=O)N1CCCCN1CCN(C(c2ccccc2)c2ccccc2)CC1` (centres undefined) had an inhibition in data set [1] of 50%.
`Cn1c(=O)c2c(ncn2CCCN2CCN(c3ccc(Cl)nn3)CC2)n(C)c1=O` returned an inhibition in data set [1] of 50%.
For the molecule `O=C1CC2(CCCC2)CC(=O)N1CCCCN1CCN(C(c2ccc(F)cc2)c2ccc(F)cc2)CC1`, the inhibition in [1] amounted to 77%.
As usually defined, the Kd is a measure of binding affinity in units of concentration. A high value points to weaker binding. `CC(C)(C)c1ccc(C(O)CCCN2CCC(C(O)(c3ccccc3)c3ccccc3)CC2)cc1` (centres undefined) [TERFENADINE] showed a Kd in data set [2] of 33 nM.
A word on the ED50: it is the dose at which the effect has come halfway, by size or by number of responders. By pA2 is commonly meant a measure of antagonist potency on a negative log scale. In data set [2], `CN(C)CCC(c1ccc(Cl)cc1)c1ccccn1` (centres undefined) [CHLORPHENIRAMINE] registered a Kd of 3.7 nM. Also, the values for the ED50 in [3] and in [4] were 0.79 mg/kg and 1.07 mg/kg, respectively. Further, in data set [5], the pA2 was 8.4.
Molecule `O=C1C2C3C=CC(C4CC34)C2C(=O)N1CCN1CCN(C(c2ccccc2)c2ccccc2)CC1` (centres undefined) displayed an inhibition in [1] of less than 10%.
In data set [2], `COc1ccc(CCN2CCC(Nc3nc4ccccc4n3Cc3ccc(F)cc3)CC2)cc1` [ASTEMIZOLE] registered a Kd of 5.5 nM. For the same molecule, the median effective dose (ED50) in data set [3] was found to be 0.53 mg/kg. In data set [5], the pA2 turned out to be 8.3.
`O=C1C2C3C=CC(C4CC34)C2C(=O)N1CCCN1CCN(C(c2ccccc2)c2ccc(Cl)cc2)CC1` (centres undefined): the inhibition in [1] is less than 10%.
Same read-out and setting: with `O=C1C2C3C=CC(C4CC34)C2C(=O)N1CCN1CCN(C(c2ccc(F)cc2)c2ccc(F)cc2)CC1` (centres undefined) the figure was less than 10%.
The molecule `Cn1c(=O)c2c(ncn2CCCN2CCN(c3cncc(Cl)n3)CC2)n(C)c1=O` registered an inhibition in data set [1] of 29%.
The IC50 is the midpoint of a concentration-inhibition curve. Low readings indicate greater potency in that assay, high ones weaker potency in that assay. Usually logP stands for the decadic logarithm of the partition coefficient of the neutral form, usually between octanol and water. A high value points to higher lipophilicity. The % inhibition is the share of the control response that was lost under treatment. Read a low % inhibition as a weak effect. Regarding `Cl.Cl.Cn1c(=O)c2c(ncn2CCCN2CCN(C(c3ccc(F)cc3)c3ccc(F)cc3)CC2)n(C)c1=O`, the 50% inhibitory concentration (IC50) is 220 nM in data set [6], greater than 10000 nM in data set [9], 670 nM in [12] and 59 nM in [14]. Binding in [2] was characterised by a dissociation constant (Kd) of 6.6 nM. Moreover, the inhibition in data set [1] is 92%. In data set [7], this molecule displayed a logP of 1.81. Moreover, the median effective dose (ED50) was 0.45 mg/kg in data set [3] and 1.96 mg/kg in [8]. The Relative potency in data set [10] was found to be 0.0012. Further, the % inhibition amounted to 38% in data set [11] and 43% in data set [13]. This molecule returned a pA2 in data set [5] of 8.2.
The molecule `Cn1c(=O)c2c(ncn2CCCN2CCN(c3nccnc3Cl)CC2)n(C)c1=O` gave an inhibition in data set [1] of less than 10%.
Regarding `Cn1c(=O)c2c(ncn2CCCN2CCN(C(c3ccccc3)c3ccc(Cl)cc3)CC2)n(C)c1=O` (centres undefined), the inhibition in data set [1] came out at 29%.
`CC(C)(C)c1ccc(C(=O)CCCN2CCC(OC(c3ccccc3)c3ccccc3)CC2)cc1` [EBASTINE] displayed a dissociation constant Kd in data set [2] of 4 nM. In data set [7], this molecule displayed a log partition coefficient (logP) of 2.74. Moreover, the ED50 in data set [8] turned out to be 0.45 mg/kg; in data set [15], 1.71 mg/kg. Also, in [5], the pA2 is on record as 7.4.
